# In patent publication US6004999A, “Triptolide derivatives useful in the treatment of autoimmune diseases” (priority 1998, dated 1999):
# Experiments:
# [1] = test system: Jurkat E6-1 cell line or lymphocytes prepared from fresh human blood; assay: Cell viability (MTT mitochondrial enzyme assay); format: cell-based; settings: cell viability after 16-24 hours incubation; MTT 4 hours
# Procedure: (§1) Jurkat E6-1 cell line (ATCC), a human leukemic T cell line or lymphocytes prepared from fresh human blood, are grown in complete culture medium consisting of RPMI-1640 (Mediatech) supplemented with 10% v/v fetal bovine serum (HyClone, Logen, Vermont), penicillin (100 units/mL), streptomycin ([…]), and 2mM L-glutamine (GIBCO, Grand Island, N.Y.). The cells are grown to a concentration of between 1.2 to 1.8×10^6 cells/mL before use. The cells are then centrifuged at low speed and resuspended to a concentration of 1.25×10^6 cells/mL in fresh medium.
# (§2) The compounds to be tested are dissolved in DMSO, and water is added to make a 50% DMSO/water solution. The compounds are then diluted in sterile water such that the DMSO concentrations are less then 0.05%. The cells at a concentration of 1.25×10^6 cells/mL are stimulated with phytohemagglutinin 10 μg/mL (PHA) and 10^-8 M phorbol ester (12-O-tetradecanoylphorbol 13-acetate: TPA), (Sigma, St. Louis, Mo.). The compounds are then added and the cells are plated in flat-bottom tissue culture plates (Falcon, Lincoln Park, N.J.), with 250,000 cells/well. Plates are then incubated at 37° C. in a 5% CO2 atmosphere.
# Cell viability is measured by the use of a mitochondrial enzyme assay. After removal of the supernatant for the IL-2 assay, Cell Titer 96 (a commercial solution of MTT obtained from Promega, Madison, Wis.), is added to the plates and incubated for 4 hours at 37° C. A solubilization solution is then added and incubated overnight. The plates are then read on an ELISA plate reader at a wavelength of 570 nm. Table II presents the results for the lnterleukin-2 assay, the cell viability assay and the ratio of cell viability/IL-2 inhibition.
# [2] = test system: rat model of adjuvant-induced arthritis; assay: Anti-inflammatory activity in the rat model of adjuvant-induced arthritis; format: in vivo, rat (male Wistar-Lewis); settings: 12 consecutive days
# Procedure: (§3) Following generally the procedure of Pearson and Wood, Arth. Rheum., 2, 44 (1959), the anti-inflammatory activity of the following compounds was determined in a rat model of adjuvant-induced arthritis. Male Wistar-Lewisrats (Mollegaard, Breeding Centre Ltd, BIBY, DK 4623 LI, SKENSVED, P.P. Box 28, DK) with a body weight between 160 g and 200 g are used. Freund's adjuvant (0.1 mL, 6 mg Mycobacterium smegmatis suspension per mL in heavy white paraffin oil, Merck/Darmstadt) was injected into the base of the tail. Between day 10 and day 14 of the test, immunopathological processes let to chronic inflammation, especially in the form of arthritic and periarthritic symptoms in all parts of the body. The animals received standardized food Altromin-R (Altrogge, Lage) and had free access to water. The compounds were administered i.p. (a suspension in carboxymethyl cellulose solution in an injection volume of 0.5 mL/100 g body weight) on 12 consecutive days, starting with the day of the adjuvant injection. On day 1 and day 18 of the study, the volume of both hind paws and the body weight were recorded, and in addition on day 18 the arthritis index. Cyclosporin A and Prednisolone were used as standard compounds. In addition, table IV presents the percent change in body weight (weight gain) between day 1 and day 21 of the above test.
# [3] = Percent change in body weight in the adjuvant-induced arthritis rat test; format: in vivo, rat (male Wistar-Lewis); settings: between day 1 and day 21, arthritic CMC control 17.9, normal non-arthritic animals 32.0
# Procedure: as §3
# [4] = test system: lymphocyte proliferation; settings: Yang et al. 1992, 1994; cited from earlier work
# [5] = test system: IL-2 production; assay: Interleukin-2 assay: IL-2 production by PHA/TPA-stimulated cells (ELISA); format: cell-based, human; settings: PHA 10 μg/mL and 10^-8 M TPA stimulation; 16-24 hours
# Procedure: as §1, §2
# After incubation (16-24 hours), the cells are assayed for IL-2 production and cell viability (MTT). IL-2 production is assayed utilizing a solid phase ELISA immunoassay, sold in kit form by R&D Systems, Inc., Minneapolis, Minn.
# [6] = test system: immunosuppressive activity; settings: in conjunction with another immunosuppressive agent (cyclosporin A, FK506, etc.); WO 94/26265; cited from earlier work
compound,measurement,setting,value
CC(C)[C@]12O[C@H]1[C@@H]1O[C@]13[C@]1(O[C@H]1C[C@H]1C4=C(CC[C@@]13C)C(=O)OC4)[C@@H]2O [Triptolide],IC50 /MTT,[1],5 ng/mL
same,% Inhibition,[2]; 0.2 mg/kg/day i.p.,70%
same,% Inhibition,[2]; 0.4 mg/kg/day i.p.,85%
same,% Inhibition,[2]; 0.8 mg/kg/day i.p.,76%
same,% Change in Body Weight (weight gain),[3]; 0.2 mg/kg/day i.p.,17.2%
same,% Change in Body Weight (weight gain),[3]; 0.4 mg/kg/day i.p.,22.0%
same,% Change in Body Weight (weight gain),[3]; 0.8 mg/kg/day i.p.,18.0%
same,suppress lymphocyte proliferation,[4],suppress lymphocyte proliferation
"CC(C)C12OC1C1OC13C1(C)CCC4=C(COC4=O)C1CCC3(O)C2O (stereo not drawn) [Example 1, [5aR-(5aα,6α,6aα,7aα,7bβ,8aS*,8bα)]-3,3b,4,5,5a,6,6a,7a,7b,8b,9,10-dodecahydro-5a,6-dihydroxy-8b-methyl-6a-(1-methylethyl)-1H-bisoxireno[4b,5:6,7]phenanthro[1,2-c]furan-1-one]",IC50 /IL-2,[5],0.036 µg/mL
same,% Inhibition,[2]; 10 mg/kg/day i.p.,90%
same,% Change in Body Weight (weight gain),[3]; 10 mg/kg/day i.p.,29.9%
C[C@]12C=CC(=O)C=C1CC[C@@H]1[C@@H]2[C@@H](O)C[C@@]2(C)[C@H]1CC[C@]2(O)C(=O)CO [Prednisolone],% Inhibition,[2]; 15 mg/kg/day i.p.,100%
same,% Change in Body Weight (weight gain),[3]; 15 mg/kg/day i.p.,14.2%
"[1S-(1α, 2β, 3α, 3aβ,4aR, 4bα, 11β, 11aα)-3-chloro-1, 2,3,3a,4b,5,6,9,9b, 10,11,11a-dodecahydro-1,11a-dihydroxy-4b-methyl-2-(1-methylethyl)-2,11 -epoxy-7oxireno[4b,5]phenanthro[1,2-c]furan-7-one [Example 3]",IC50 /IL-2,[5],0.14 µg/mL
same,IC50 /MTT,[1],"> 1,000 ng/mL"
"[1S (1α, 2β,3α, 3aβ,4aR*,4bα, 11aα)1-3-chloro-1, 2,3,3a,4b,5,6,9,9b, 10,11,11a-dodecahydro-1,2,11a-trihydroxy-4b-methyl-2-(1 -methylethyl)-7H-oxireno[4b,5]phenanthro [1,2-c]furan-7-one [Example 2]",IC50 /IL-2,[5],0.06 µg/mL
same,IC50 /MTT,[1],550 ng/mL
C[C@@H](CO)[C@]12O[C@H]1[C@@H]1O[C@]13[C@]1(O[C@H]1C[C@H]1C4=C(CC[C@@]13C)C(=O)OC4)[C@@H]2O [16-hydroxytriptolide],immunosuppressive activity,[6],increase in immunosuppressive activity relative to the sum of the effects
Cyclosporin A,% Inhibition,[2]; 10 mg/kg/day i.p.,100%
same,% Change in Body Weight (weight gain),[3]; 10 mg/kg/day i.p.,27.2%
